Laboratory results as given in patent US11576901B2, “Methods for treating viral infection” (HOWARD UNIVERSITY, priority 2016, dated 2023).
Values belong to the molecule of their own block, whether it stands above or below them.

Key:
[1] = tested on: HIV1 modified pNL4-3.Luc.R-E-virus; test: Western assay of HIV p24 gag expression in infected CEM T cells; type: cell-based; settings: Western assay with HIV p24 antibody, FIG. 4
Text: The ability of a compound in accordance with General Formula 1, including derivatives in accordance with General Formulae 1-1 to 1-20, or pharmaceutically acceptable salts thereof, to inhibit the expression of at least a portion of a virus genome containing an IRES sequence can be also be determined by assessing the expression of a native protein within a viral genome. In some embodiments, the ability of a compound or pharmaceutically acceptable salt to inhibit expression of native protein can be assessed by using antibodies for a protein normally expressed from the virus genome. For example, HIV p24 gag is a protein normally expressed by HIV1 that can be detected using the HIVI p24 antibody. Accordingly, compounds in accordance with General Formula 1, including derivatives in accordance with any of General Formulae 1-1 to 1-20, or pharmaceutically acceptable salts thereof, can be assessed for the ability to inhibit proliferation of the HIV1 by infecting CEM T cells with the HIV1 modified pNL4-3.Luc.R-E-virus and assessing the expression of HIV p24 gag with the HIV p24 antibody. […]
A compound or salt may be wrongly classified as capable of inhibiting expression of at least a portion of a virus genome containing an IRES sequence due to unequal loading of proteins within an assay. […] In some embodiments, equivalent protein loading can be assessed by ponceau staining. […]

[2] = tested on: HSV-1; test: Plaque forming assay, Hep-2 cell monolayers infected with HSV-1; type: cell-based; settings: Hep-2 cells, 100 μM
Experimental: The ability of a virus to infect cells can be assessed using a plaque assay. In a plaque assay, an infected cell culture is grown under a nutrient gel. During culturing, the virus being study infects cells and replicates. However, the spread of virus to other cells is limited by the overlaying nutrient gel. As such, replicated virus released from one infected cell can only infect neighboring cells. The spread of virus amongst neighboring cells creates a plaque that can be visualized by staining. By counting the visible plaques, the amount of plaque forming units (pfu) per mL can be determined. If cells treated with a compound display a reduced amount of pfu compared to cells not treated with the compound after being infected with same amount of viral particles, then the reduction in pfu would have to be result of the ability of the […] virus. Thus, the ability of a compound in accordance with General Formula 1, including derivatives in accordance with any of General Formulae 1-1 to 1-20, to inhibit the ability of HSV-1 to proliferate can be assessed with a plaque assay.
Hep-2 cell monolayers were placed in well plates. The plated Hep-2 cells were treated with either DSMO as a control, 100 μM SD-29 or 100 μM SD29-12. A total of 6 well plates were prepared for each treatment condition. To each treated well plate an HSV-1 infecting solution comprising 1 mL of supernatants containing of the same amount of serially diluted HSV-1 particles were added. Accordingly, the treated well plates were infected with infection solutions containing the same amount of HSV-1 particles. After adsorption for 2 hours, the medium was removed and the treated cells were washed twice with serum-free DMEM and overlaid with phenol-free DMEM containing 5% FCS, 0.5% low-melting point agarose (GIBCO), and 1% penicillin-streptomycin. After either 0, 6, 12, 24 hours, the plaques present in each treated well plate were stained red and the number of plaques presented counted. Table 1 reports the mean plaque forming unit (pfu) determined for each treated well plate after averaging the number of pfu from the different plates receiving the same treatment.

Structure (SMILES): COc1ccc(-c2nnc(SCC(=O)O)n2N)cc1 [SD-29-12]
expression of HIV p24 gag [1]: does not inhibit expression of HIV p24 gag | mean plaque forming unit (pfu) ([2]; 0 hpi): 0 pfu | mean plaque forming unit (pfu) ([2]; 6 hpi): 380 pfu | mean plaque forming unit (pfu) ([2]; 12 hpi): 3600 pfu | mean plaque forming unit (pfu) ([2]; 24 hpi): 2600000 pfu

melting point: 220 °C
Structure (SMILES): Nn1c(-c2cccc(F)c2)n[nH]c1=S [5e, 4-amino-5-(3-fluorophenyl)-2,4-dihydro-3H-1,2,4-triazole-3-thione]
